Data as given in PubChem BioAssay (NCI).
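How tested: cells in 96-well plates exposed to compound for 48 hours at five concentrations. Definition used: TGI = concentration required for complete inhibition of growth.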

How the values were obtained:
Assay in all cases: NCI-60 cell line screen, 48 h
786-0 renal = system: 786-0 renal
A498 renal = system: A498 renal
A549 NSCLC = system: A549 NSCLC
ACHN renal = system: ACHN renal
BT-549 breast = system: BT-549 breast
CAKI-1 renal = system: CAKI-1 renal
CCRF-CEM leukemia = system: CCRF-CEM leukemia
COLO 205 colon = system: COLO 205 colon
DU-145 prostate = system: DU-145 prostate
EKVX NSCLC = system: EKVX NSCLC
HCC-2998 colon = system: HCC-2998 colon
HCT-116 colon = system: HCT-116 colon
HCT-15 colon = system: HCT-15 colon
HL-60(TB) leukemia = system: HL-60(TB) leukemia
HOP-62 NSCLC = system: HOP-62 NSCLC
HOP-92 NSCLC = system: HOP-92 NSCLC
HS 578T breast = system: HS 578T breast
HT29 colon = system: HT29 colon
IGROV1 ovarian = system: IGROV1 ovarian
K-562 leukemia = system: K-562 leukemia
KM12 colon = system: KM12 colon
LOX IMVI melanoma = system: LOX IMVI melanoma
M14 melanoma = system: M14 melanoma
MCF7 breast = system: MCF7 breast
MDA-MB-231 breast = system: MDA-MB-231 breast
MDA-MB-435 = system: MDA-MB-435
MDA-N = system: MDA-N
MOLT-4 leukemia = system: MOLT-4 leukemia
NCI-H226 lung = system: NCI-H226 lung
NCI-H23 lung = system: NCI-H23 lung
NCI-H460 lung = system: NCI-H460 lung
NCI/ADR-RES ovarian = system: NCI/ADR-RES ovarian
OVCAR-3 ovarian = system: OVCAR-3 ovarian
OVCAR-4 ovarian = system: OVCAR-4 ovarian
OVCAR-5 ovarian = system: OVCAR-5 ovarian
OVCAR-8 ovarian = system: OVCAR-8 ovarian
PC-3 prostate = system: PC-3 prostate
RPMI-8226 leukemia = system: RPMI-8226 leukemia
RXF 393 renal = system: RXF 393 renal
SF-268 CNS = system: SF-268 CNS
SF-295 CNS = system: SF-295 CNS
SF-539 CNS = system: SF-539 CNS
SK-MEL-2 melanoma = system: SK-MEL-2 melanoma
SK-MEL-28 melanoma = system: SK-MEL-28 melanoma
SK-MEL-5 melanoma = system: SK-MEL-5 melanoma
SK-OV-3 ovarian = system: SK-OV-3 ovarian
SN12C renal = system: SN12C renal
SNB-19 CNS = system: SNB-19 CNS
SNB-75 CNS = system: SNB-75 CNS
SR leukemia = system: SR leukemia
SW-620 colon = system: SW-620 colon
T-47D breast = system: T-47D breast
TK-10 renal = system: TK-10 renal
U251 CNS = system: U251 CNS
UACC-257 melanoma = system: UACC-257 melanoma
UACC-62 melanoma = system: UACC-62 melanoma
UO-31 renal = system: UO-31 renal

Measured: TGI

Cn1c(-c2ccccc2)cc(-c2ccsc2)c1-c1ccsc1
> 100 µM: all assays above
